Blank lines part the entries; values can stand above or below the compound they belong to.
How the values were obtained:
Assay in all cases: radiometric filter-binding kinase assay
PIM1 (human) = PIM1 (human) (UniProt P11309)
[1] = tested on: SGK1 (human), O00141 [S422D]
IKBKE (human) = IKBKE (human) (UniProt Q14164)
MAP2K2 (human) = MAP2K2 (human) (UniProt P36507)
EPHB4 (human) = EPHB4 (human) (UniProt P54760)
MAPK9 (human) = MAPK9 (human) (UniProt P45984)
MAPK3 (human) = MAPK3 (human) (UniProt P27361)
PRKCZ (human) = PRKCZ (human) (UniProt Q05513)
MELK (human) = MELK (human) (UniProt Q14680)
PIM3 (human) = PIM3 (human) (UniProt Q86V86)
BRSK2 (human) = BRSK2 (human) (UniProt Q8IWQ3)
MARK1 (human) = MARK1 (human) (UniProt Q9P0L2)
FGFR1 (human) = FGFR1 (human) (UniProt P11362)
CAMKK2 (human) = CAMKK2 (human) (UniProt Q96RR4)
GSK3B (human) = GSK3B (human) (UniProt P49841)
SYK (human) = SYK (human) (UniProt P43405)
EEF2K (human) = EEF2K (human) (UniProt O00418)
PHKG1 (human) = PHKG1 (human) (UniProt Q16816)
MAPKAPK5 (human) = MAPKAPK5 (human) (UniProt Q8IW41)
MKNK1 (human) = MKNK1 (human) (UniProt Q9BUB5)
BRSK1 (human) = BRSK1 (human) (UniProt Q8TDC3)
ERBB4 (human) = ERBB4 (human) (UniProt Q15303)
PAK7 (human) = PAK7 (human) (UniProt Q9P286)
PRKACA (human) = PRKACA (human) (UniProt P17612)
STK3 (human) = STK3 (human) (UniProt Q13188)
DYRK1A (human) = DYRK1A (human) (UniProt Q13627)
HIPK3 (human) = HIPK3 (human) (UniProt Q9H422)
MAPKAPK2 (human) = MAPKAPK2 (human) (UniProt P49137)
DAPK1 (human) = DAPK1 (human) (UniProt P53355)
IGF1R (human) = IGF1R (human) (UniProt P08069)
PRKAA1 or PRKAA2 (rat) = conditions: accession and sequence are those of the human protein
MAP3K5 (human) = MAP3K5 (human) (UniProt Q99683)
MAPK13 (human) = MAPK13 (human) (UniProt O15264)
PIM2 (human) = PIM2 (human) (UniProt Q9P1W9)
MAPK12 (human) = MAPK12 (human) (UniProt P53778)
MAP2K6 (human) = MAP2K6 (human) (UniProt P52564)

DAPK1 (human), sequence (P53355 whole entry, looked up): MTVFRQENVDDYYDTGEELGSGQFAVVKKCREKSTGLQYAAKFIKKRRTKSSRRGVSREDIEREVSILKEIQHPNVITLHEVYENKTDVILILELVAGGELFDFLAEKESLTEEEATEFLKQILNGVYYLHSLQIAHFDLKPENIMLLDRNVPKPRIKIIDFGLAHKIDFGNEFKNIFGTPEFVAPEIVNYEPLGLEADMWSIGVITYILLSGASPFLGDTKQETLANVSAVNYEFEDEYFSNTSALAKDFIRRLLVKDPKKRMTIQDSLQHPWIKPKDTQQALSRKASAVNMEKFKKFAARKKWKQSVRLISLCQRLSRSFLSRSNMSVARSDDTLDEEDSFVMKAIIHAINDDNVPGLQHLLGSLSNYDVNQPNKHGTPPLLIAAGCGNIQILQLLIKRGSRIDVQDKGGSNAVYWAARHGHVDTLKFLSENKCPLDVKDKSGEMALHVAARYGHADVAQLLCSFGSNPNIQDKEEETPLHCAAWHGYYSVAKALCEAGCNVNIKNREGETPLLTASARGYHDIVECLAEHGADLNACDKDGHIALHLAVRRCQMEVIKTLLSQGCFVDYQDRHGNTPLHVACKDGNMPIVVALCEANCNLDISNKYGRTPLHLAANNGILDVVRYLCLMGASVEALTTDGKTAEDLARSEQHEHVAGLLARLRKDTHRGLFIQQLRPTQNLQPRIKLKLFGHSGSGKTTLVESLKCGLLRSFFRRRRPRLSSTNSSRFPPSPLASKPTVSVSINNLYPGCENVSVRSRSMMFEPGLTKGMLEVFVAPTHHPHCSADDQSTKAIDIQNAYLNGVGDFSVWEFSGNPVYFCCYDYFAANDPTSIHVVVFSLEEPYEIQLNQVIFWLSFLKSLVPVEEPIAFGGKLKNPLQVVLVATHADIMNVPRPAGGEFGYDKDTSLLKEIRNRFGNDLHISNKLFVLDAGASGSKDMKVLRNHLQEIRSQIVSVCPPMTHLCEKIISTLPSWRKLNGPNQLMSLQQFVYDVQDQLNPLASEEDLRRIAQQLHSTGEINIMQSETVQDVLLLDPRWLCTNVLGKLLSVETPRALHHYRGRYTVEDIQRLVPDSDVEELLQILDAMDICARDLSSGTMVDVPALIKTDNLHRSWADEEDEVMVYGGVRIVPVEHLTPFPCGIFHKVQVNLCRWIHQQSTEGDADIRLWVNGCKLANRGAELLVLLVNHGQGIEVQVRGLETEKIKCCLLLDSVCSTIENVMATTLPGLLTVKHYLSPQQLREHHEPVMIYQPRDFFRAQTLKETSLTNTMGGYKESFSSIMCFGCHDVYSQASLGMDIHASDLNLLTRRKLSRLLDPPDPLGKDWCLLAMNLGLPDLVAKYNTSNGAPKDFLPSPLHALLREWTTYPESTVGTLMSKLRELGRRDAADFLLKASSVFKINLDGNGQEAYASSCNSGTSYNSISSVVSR
ERBB4 (human), sequence (Q15303 whole entry, looked up): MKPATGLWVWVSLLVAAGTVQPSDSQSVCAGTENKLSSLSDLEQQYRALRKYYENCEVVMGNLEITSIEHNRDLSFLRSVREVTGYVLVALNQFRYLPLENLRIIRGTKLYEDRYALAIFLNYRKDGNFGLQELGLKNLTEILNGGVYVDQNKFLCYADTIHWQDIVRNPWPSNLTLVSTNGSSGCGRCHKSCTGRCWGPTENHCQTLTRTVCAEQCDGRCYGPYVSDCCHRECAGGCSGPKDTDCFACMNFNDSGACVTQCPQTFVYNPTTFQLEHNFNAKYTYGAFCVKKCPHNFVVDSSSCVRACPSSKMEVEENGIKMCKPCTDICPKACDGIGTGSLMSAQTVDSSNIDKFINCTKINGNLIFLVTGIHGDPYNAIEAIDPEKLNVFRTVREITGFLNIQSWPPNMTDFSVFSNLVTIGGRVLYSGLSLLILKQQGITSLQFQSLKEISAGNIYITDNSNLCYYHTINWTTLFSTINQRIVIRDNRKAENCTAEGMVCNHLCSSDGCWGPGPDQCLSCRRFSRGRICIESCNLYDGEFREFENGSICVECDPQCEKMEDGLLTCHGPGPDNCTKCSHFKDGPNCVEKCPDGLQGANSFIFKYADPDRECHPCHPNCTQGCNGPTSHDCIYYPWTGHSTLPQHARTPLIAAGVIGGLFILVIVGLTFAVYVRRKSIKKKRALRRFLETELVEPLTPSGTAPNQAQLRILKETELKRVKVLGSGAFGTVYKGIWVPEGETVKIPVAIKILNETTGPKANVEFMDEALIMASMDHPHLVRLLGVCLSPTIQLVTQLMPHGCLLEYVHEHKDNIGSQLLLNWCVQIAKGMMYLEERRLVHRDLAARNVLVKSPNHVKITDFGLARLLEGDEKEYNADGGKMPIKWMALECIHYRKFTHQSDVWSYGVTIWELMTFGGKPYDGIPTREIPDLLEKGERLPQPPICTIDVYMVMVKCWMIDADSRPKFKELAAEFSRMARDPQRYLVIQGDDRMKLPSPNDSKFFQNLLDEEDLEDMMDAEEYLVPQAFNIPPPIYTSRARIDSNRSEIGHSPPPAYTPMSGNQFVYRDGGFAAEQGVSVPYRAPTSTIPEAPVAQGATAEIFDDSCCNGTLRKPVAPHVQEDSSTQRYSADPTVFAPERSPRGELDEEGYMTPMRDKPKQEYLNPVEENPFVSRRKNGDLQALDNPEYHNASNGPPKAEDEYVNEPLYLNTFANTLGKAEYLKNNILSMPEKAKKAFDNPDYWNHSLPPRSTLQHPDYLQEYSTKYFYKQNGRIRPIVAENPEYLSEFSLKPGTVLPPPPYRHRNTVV
GSK3B (human), sequence (P49841 whole entry, looked up): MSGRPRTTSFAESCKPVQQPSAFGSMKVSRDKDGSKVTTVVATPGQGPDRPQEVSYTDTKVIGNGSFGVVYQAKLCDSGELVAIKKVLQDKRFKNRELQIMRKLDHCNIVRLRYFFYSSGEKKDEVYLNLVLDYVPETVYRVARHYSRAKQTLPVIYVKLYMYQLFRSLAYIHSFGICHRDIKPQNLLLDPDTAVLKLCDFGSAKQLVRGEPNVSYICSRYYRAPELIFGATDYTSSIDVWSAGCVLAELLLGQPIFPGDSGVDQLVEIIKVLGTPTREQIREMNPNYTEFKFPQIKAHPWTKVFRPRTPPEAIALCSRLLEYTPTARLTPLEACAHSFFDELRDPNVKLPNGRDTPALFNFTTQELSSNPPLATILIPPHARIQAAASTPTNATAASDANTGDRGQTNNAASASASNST
MAPKAPK2 (human), sequence (P49137 whole entry, looked up): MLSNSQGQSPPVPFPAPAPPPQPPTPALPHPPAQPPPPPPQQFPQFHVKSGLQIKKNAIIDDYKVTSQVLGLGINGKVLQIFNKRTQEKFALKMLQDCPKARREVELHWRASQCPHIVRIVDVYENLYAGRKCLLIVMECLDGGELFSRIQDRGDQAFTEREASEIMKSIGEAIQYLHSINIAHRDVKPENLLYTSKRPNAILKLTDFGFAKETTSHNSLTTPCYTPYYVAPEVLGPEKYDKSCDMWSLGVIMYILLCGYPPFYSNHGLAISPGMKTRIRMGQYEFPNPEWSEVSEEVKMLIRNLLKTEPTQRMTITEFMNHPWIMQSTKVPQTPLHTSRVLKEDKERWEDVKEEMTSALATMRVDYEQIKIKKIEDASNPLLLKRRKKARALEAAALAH
EEF2K (human), sequence (O00418 whole entry, looked up): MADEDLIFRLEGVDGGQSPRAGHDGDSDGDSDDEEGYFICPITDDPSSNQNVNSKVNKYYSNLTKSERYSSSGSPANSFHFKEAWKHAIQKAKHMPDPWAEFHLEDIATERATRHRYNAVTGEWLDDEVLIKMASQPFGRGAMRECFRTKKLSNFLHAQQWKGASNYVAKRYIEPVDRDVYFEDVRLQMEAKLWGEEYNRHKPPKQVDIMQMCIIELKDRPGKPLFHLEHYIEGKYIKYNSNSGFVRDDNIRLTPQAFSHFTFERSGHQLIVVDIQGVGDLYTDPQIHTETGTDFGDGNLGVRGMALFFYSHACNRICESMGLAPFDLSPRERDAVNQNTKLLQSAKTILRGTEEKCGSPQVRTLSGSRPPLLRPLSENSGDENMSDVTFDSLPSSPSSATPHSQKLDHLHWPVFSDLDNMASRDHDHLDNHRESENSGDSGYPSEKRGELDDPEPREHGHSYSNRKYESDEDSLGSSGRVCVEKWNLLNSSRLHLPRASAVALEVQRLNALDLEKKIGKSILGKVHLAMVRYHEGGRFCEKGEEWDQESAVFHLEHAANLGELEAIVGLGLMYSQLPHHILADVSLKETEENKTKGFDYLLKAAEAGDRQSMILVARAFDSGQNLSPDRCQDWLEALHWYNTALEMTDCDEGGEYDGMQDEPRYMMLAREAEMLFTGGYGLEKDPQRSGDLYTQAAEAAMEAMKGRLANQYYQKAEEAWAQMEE
BRSK2 (human), sequence (Q8IWQ3 whole entry, looked up): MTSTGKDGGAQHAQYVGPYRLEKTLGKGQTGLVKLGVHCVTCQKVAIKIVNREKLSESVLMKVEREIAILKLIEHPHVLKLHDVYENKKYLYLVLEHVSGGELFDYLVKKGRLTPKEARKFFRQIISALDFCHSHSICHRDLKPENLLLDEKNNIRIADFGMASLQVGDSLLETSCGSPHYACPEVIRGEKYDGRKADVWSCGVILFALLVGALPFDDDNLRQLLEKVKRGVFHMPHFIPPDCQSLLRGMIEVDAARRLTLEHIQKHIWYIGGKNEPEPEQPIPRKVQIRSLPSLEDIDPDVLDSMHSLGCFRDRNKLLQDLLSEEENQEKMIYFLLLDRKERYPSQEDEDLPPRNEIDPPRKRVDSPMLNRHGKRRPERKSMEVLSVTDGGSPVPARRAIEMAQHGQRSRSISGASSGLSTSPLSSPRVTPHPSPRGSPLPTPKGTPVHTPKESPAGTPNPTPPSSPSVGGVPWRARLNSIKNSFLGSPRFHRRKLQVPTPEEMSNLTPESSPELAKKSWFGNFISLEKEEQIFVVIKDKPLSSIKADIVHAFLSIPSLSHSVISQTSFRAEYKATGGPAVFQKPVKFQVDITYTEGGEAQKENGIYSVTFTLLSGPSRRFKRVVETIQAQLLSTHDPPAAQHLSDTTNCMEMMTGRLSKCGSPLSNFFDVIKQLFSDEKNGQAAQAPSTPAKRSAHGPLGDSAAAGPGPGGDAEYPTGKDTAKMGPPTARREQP

residual activity (PIM1 (human); compound 0.01 µM): 90%
residual activity (PIM1 (human); compound 0.1 µM): 87%
residual activity (PIM1 (human); compound 1.0 µM): 92%
residual activity ([1]; compound 0.01 µM): 93%
residual activity ([1]; compound 0.1 µM): 91%
residual activity ([1]; compound 1.0 µM): 104%
residual activity (IKBKE (human); compound 0.01 µM): 108%
residual activity (IKBKE (human); compound 0.1 µM): 105%
residual activity (IKBKE (human); compound 1.0 µM): 92%
residual activity (MAP2K2 (human); compound 0.01 µM): 74%
residual activity (MAP2K2 (human); compound 0.1 µM): 21%
residual activity (MAP2K2 (human); compound 1.0 µM): 9%
residual activity (EPHB4 (human); compound 0.01 µM): 109%
residual activity (EPHB4 (human); compound 0.1 µM): 116%
residual activity (MAPK9 (human); compound 0.01 µM): 105%
residual activity (MAPK9 (human); compound 0.1 µM): 106%
residual activity (MAPK9 (human); compound 1.0 µM): 99%
residual activity (MAPK3 (human); compound 0.01 µM): 111%
residual activity (MAPK3 (human); compound 0.1 µM): 102%
residual activity (MAPK3 (human); compound 1.0 µM): 57%
residual activity (PRKCZ (human); compound 0.01 µM): 97%
residual activity (PRKCZ (human); compound 0.1 µM): 78%
residual activity (PRKCZ (human); compound 1.0 µM): 105%
residual activity (MELK (human); compound 0.01 µM): 92%
residual activity (MELK (human); compound 0.1 µM): 100%
residual activity (MELK (human); compound 1.0 µM): 104%
residual activity (PIM3 (human); compound 0.01 µM): 92%
residual activity (PIM3 (human); compound 0.1 µM): 98%
residual activity (PIM3 (human); compound 1.0 µM): 99%
residual activity (BRSK2 (human); compound 0.01 µM): 114%
residual activity (BRSK2 (human); compound 0.1 µM): 93%
residual activity (BRSK2 (human); compound 1.0 µM): 96%
residual activity (MARK1 (human); compound 0.01 µM): 101%
residual activity (MARK1 (human); compound 0.1 µM): 99%
residual activity (MARK1 (human); compound 1.0 µM): 101%
residual activity (FGFR1 (human); compound 0.01 µM): 118%
residual activity (FGFR1 (human); compound 0.1 µM): 154%
residual activity (CAMKK2 (human); compound 0.01 µM): 102%
residual activity (CAMKK2 (human); compound 0.1 µM): 99%
residual activity (GSK3B (human); compound 0.01 µM): 91%
residual activity (GSK3B (human); compound 0.1 µM): 106%
residual activity (SYK (human); compound 0.1 µM): 108%
residual activity (SYK (human); compound 1.0 µM): 85%
residual activity (EEF2K (human); compound 0.01 µM): 91%
residual activity (EEF2K (human); compound 0.1 µM): 103%
residual activity (PHKG1 (human); compound 0.01 µM): 100%
residual activity (PHKG1 (human); compound 0.1 µM): 98%
residual activity (PHKG1 (human); compound 1.0 µM): 107%
residual activity (MAPKAPK5 (human); compound 0.01 µM): 74%
residual activity (MAPKAPK5 (human); compound 0.1 µM): 72%
residual activity (MAPKAPK5 (human); compound 1.0 µM): 32%
residual activity (MKNK1 (human); compound 0.01 µM): 100%
residual activity (MKNK1 (human); compound 0.1 µM): 87%
residual activity (MKNK1 (human); compound 1.0 µM): 55%
residual activity (BRSK1 (human); compound 0.01 µM): 90%
residual activity (BRSK1 (human); compound 0.1 µM): 90%
residual activity (BRSK1 (human); compound 1.0 µM): 82%
residual activity (ERBB4 (human); compound 0.1 µM): 104%
residual activity (ERBB4 (human); compound 1.0 µM): 105%
residual activity (PAK7 (human); compound 0.01 µM): 102%
residual activity (PAK7 (human); compound 0.1 µM): 115%
residual activity (PRKACA (human); compound 0.01 µM): 91%
residual activity (PRKACA (human); compound 0.1 µM): 99%
residual activity (PRKACA (human); compound 1.0 µM): 100%
residual activity (STK3 (human); compound 0.01 µM): 97%
residual activity (STK3 (human); compound 0.1 µM): 89%
residual activity (STK3 (human); compound 1.0 µM): 102%
residual activity (DYRK1A (human); compound 0.01 µM): 98%
residual activity (DYRK1A (human); compound 0.1 µM): 105%
residual activity (DYRK1A (human); compound 1.0 µM): 101%
residual activity (HIPK3 (human); compound 0.01 µM): 104%
residual activity (HIPK3 (human); compound 0.1 µM): 100%
residual activity (HIPK3 (human); compound 1.0 µM): 102%
residual activity (MAPKAPK2 (human); compound 0.01 µM): 93%
residual activity (MAPKAPK2 (human); compound 0.1 µM): 101%
residual activity (DAPK1 (human); compound 0.01 µM): 82%
residual activity (DAPK1 (human); compound 0.1 µM): 108%
residual activity (DAPK1 (human); compound 1.0 µM): 96%
residual activity (IGF1R (human); compound 0.01 µM): 103%
residual activity (IGF1R (human); compound 0.1 µM): 100%
residual activity (PRKAA1 or PRKAA2 (rat); compound 0.01 µM): 105%
residual activity (PRKAA1 or PRKAA2 (rat); compound 0.1 µM): 105%
residual activity (PRKAA1 or PRKAA2 (rat); compound 1.0 µM): 94%
residual activity (MAP3K5 (human); compound 0.01 µM): 105%
residual activity (MAP3K5 (human); compound 0.1 µM): 103%
residual activity (MAP3K5 (human); compound 1.0 µM): 109%
residual activity (MAPK13 (human); compound 0.01 µM): 101%
residual activity (MAPK13 (human); compound 0.1 µM): 100%
residual activity (MAPK13 (human); compound 1.0 µM): 108%
residual activity (PIM2 (human); compound 0.01 µM): 93%
residual activity (PIM2 (human); compound 0.1 µM): 114%
residual activity (MAPK12 (human); compound 0.01 µM): 100%
residual activity (MAPK12 (human); compound 0.1 µM): 105%
residual activity (MAP2K6 (human); compound 0.01 µM): 59%
residual activity (MAP2K6 (human); compound 0.1 µM): 21%
residual activity (MAP2K6 (human); compound 1.0 µM): 20%
Compound: COc1cc(O)c2c(c1)[C@H]1OC1C[C@H](O)[C@H](O)C(=O)/C=C\C[C@H](C)OC2=O (stereo partly drawn)

residual activity (PIM1 (human); compound 0.1 µM): 96%
residual activity (PIM1 (human); compound 1.0 µM): 62%
residual activity ([1]; compound 0.1 µM): 107%
residual activity ([1]; compound 1.0 µM): 61%
residual activity (IKBKE (human); compound 0.1 µM): 28%
residual activity (IKBKE (human); compound 1.0 µM): 18%
residual activity (MAP2K2 (human); compound 0.1 µM): 55%
residual activity (MAP2K2 (human); compound 1.0 µM): 28%
residual activity (EPHB4 (human); compound 0.1 µM): 69%
residual activity (EPHB4 (human); compound 1.0 µM): 3%
residual activity (MAPK9 (human); compound 1.0 µM): 33%
residual activity (MAPK3 (human); compound 0.1 µM): 111%
residual activity (MAPK3 (human); compound 1.0 µM): 82%
residual activity (PRKCZ (human); compound 1.0 µM): 78%
residual activity (MELK (human); compound 0.1 µM): 37%
residual activity (MELK (human); compound 1.0 µM): 27%
residual activity (PIM3 (human); compound 0.1 µM): 91%
residual activity (PIM3 (human); compound 1.0 µM): 63%
residual activity (BRSK2 (human); compound 0.1 µM): 84%
residual activity (BRSK2 (human); compound 1.0 µM): 35%
residual activity (MARK1 (human); compound 0.1 µM): 63%
residual activity (MARK1 (human); compound 1.0 µM): 31%
residual activity (FGFR1 (human); compound 0.1 µM): 20%
residual activity (FGFR1 (human); compound 1.0 µM): 8%
residual activity (CAMKK2 (human); compound 0.1 µM): 58%
residual activity (CAMKK2 (human); compound 1.0 µM): 28%
residual activity (GSK3B (human); compound 0.1 µM): 37%
residual activity (GSK3B (human); compound 1.0 µM): 6%
residual activity (SYK (human); compound 0.1 µM): 58%
residual activity (SYK (human); compound 1.0 µM): 13%
residual activity (EEF2K (human); compound 0.1 µM): 100%
residual activity (EEF2K (human); compound 1.0 µM): 91%
residual activity (PHKG1 (human); compound 0.1 µM): 56%
residual activity (PHKG1 (human); compound 1.0 µM): 12%
residual activity (MAPKAPK5 (human); compound 0.1 µM): 98%
residual activity (MAPKAPK5 (human); compound 1.0 µM): 85%
residual activity (MKNK1 (human); compound 0.1 µM): 59%
residual activity (MKNK1 (human); compound 1.0 µM): 17%
residual activity (BRSK1 (human); compound 0.1 µM): 74%
residual activity (BRSK1 (human); compound 1.0 µM): 17%
residual activity (ERBB4 (human); compound 0.1 µM): 60%
residual activity (ERBB4 (human); compound 1.0 µM): 17%
residual activity (PAK7 (human); compound 0.1 µM): 53%
residual activity (PAK7 (human); compound 1.0 µM): 18%
residual activity (PRKACA (human); compound 0.1 µM): 78%
residual activity (PRKACA (human); compound 1.0 µM): 26%
residual activity (STK3 (human); compound 0.1 µM): 78%
residual activity (DYRK1A (human); compound 0.1 µM): 57%
residual activity (DYRK1A (human); compound 1.0 µM): 12%
residual activity (HIPK3 (human); compound 0.1 µM): 69%
residual activity (HIPK3 (human); compound 1.0 µM): 19%
residual activity (MAPKAPK2 (human); compound 1.0 µM): 108%
residual activity (DAPK1 (human); compound 0.1 µM): 51%
residual activity (DAPK1 (human); compound 1.0 µM): 15%
residual activity (IGF1R (human); compound 0.1 µM): 104%
residual activity (IGF1R (human); compound 1.0 µM): 6%
residual activity (PRKAA1 or PRKAA2 (rat); compound 0.1 µM): 25%
residual activity (PRKAA1 or PRKAA2 (rat); compound 1.0 µM): 22%
residual activity (MAP3K5 (human); compound 0.1 µM): 99%
residual activity (MAP3K5 (human); compound 1.0 µM): 77%
residual activity (MAPK13 (human); compound 1.0 µM): 68%
residual activity (PIM2 (human); compound 0.1 µM): 108%
residual activity (PIM2 (human); compound 1.0 µM): 106%
residual activity (MAPK12 (human); compound 0.1 µM): 113%
residual activity (MAPK12 (human); compound 1.0 µM): 95%
residual activity (MAP2K6 (human); compound 0.1 µM): 99%
residual activity (MAP2K6 (human); compound 1.0 µM): 75%
Compound: COc1ccc(-n2ncc3cnc(Nc4cc(OC)c(OC)c(OCCCN5CCN(C)CC5)c4)nc32)cc1

Reference: the kinase profiling compilation of Christmann-Franck et al. (2016)
